Test results from ChEMBL document CHEMBL1201862, “PubChem BioAssay data set” (2004).
Structures can show the parent of a compound that is named as a salt.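 Interpolation was linear, between the two tested concentrations surrounding the appropriate level; five concentrations were tested over 48 hours in 96-well plates. At the GI50, growth is halved.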 The source made the active and inactive calls. No stated cut-off is given here; in the data, active = GI50 up to about 1.1 µM and inactive = higher.

How the values were obtained:
Assay in all cases: NCI-60 cell line screen, 48 h
HCT-116 = system: HCT-116
LOX IMVI = system: LOX IMVI
SF-539 = system: SF-539
MCF7 = system: MCF7
HT-29 = system: HT-29
SK-OV-3 = system: SK-OV-3
786-0 = system: 786-0
CCRF-CEM = system: CCRF-CEM
SR = system: SR
RXF 393 = system: RXF 393
SK-MEL-28 = system: SK-MEL-28
SN12C = system: SN12C
OVCAR-4 = system: OVCAR-4
HOP-92 = system: HOP-92
OVCAR-5 = system: OVCAR-5
A549 = system: A549
NCI-H522 = system: NCI-H522
HOP-62 = system: HOP-62
NCI/ADR-RES = system: NCI/ADR-RES
RPMI-8226 = system: RPMI-8226

O=C(c1ccco1)N(Cc1cccnc1)C(=S)N(Cc1cccnc1)C(=O)c1ccco1
GI50 (HCT-116): 7.67 µM (inactive) | GI50 (LOX IMVI): 5.05 µM (inactive) | GI50 (SF-539): 11.1 µM (inactive) | GI50 (MCF7): 3.86 µM (inactive) | GI50 (HT-29): 17.6 µM (inactive) | GI50 (SK-OV-3): 33.6 µM (inactive) | GI50 (786-0): 3.06 µM (inactive) | GI50 (CCRF-CEM): 2.74 µM (inactive) | GI50 (SR): 5.28 µM (inactive) | GI50 (RXF 393): 28.7 µM (inactive) | GI50 (SK-MEL-28): 20.1 µM (inactive) | GI50 (SN12C): 10.6 µM (inactive) | GI50 (OVCAR-4): 20.4 µM (inactive) | GI50 (HOP-92): 17.7 µM (inactive) | GI50 (OVCAR-5): 23.7 µM (inactive) | GI50 (A549): 20.5 µM (inactive) | GI50 (NCI-H522): 13.5 µM (inactive) | GI50 (HOP-62): 13.1 µM (inactive) | GI50 (NCI/ADR-RES): 34.2 µM (inactive)

c1ccc([C@H]2CN3CCSC3=N2)cc1 [LEVAMISOLE HYDROCHLORIDE]
GI50 (HCT-116): > 100 µM (inactive) | GI50 (LOX IMVI): > 100 µM (inactive) | GI50 (SF-539): > 100 µM (inactive) | GI50 (MCF7): > 100 µM (inactive) | GI50 (HT-29): > 100 µM (inactive) | GI50 (SK-OV-3): > 100 µM (inactive) | GI50 (786-0): > 100 µM (inactive) | GI50 (CCRF-CEM): > 100 µM (inactive) | GI50 (SR): > 100 µM (inactive) | GI50 (RXF 393): > 100 µM (inactive) | GI50 (SK-MEL-28): > 100 µM (inactive) | GI50 (SN12C): > 100 µM (inactive) | GI50 (OVCAR-4): > 100 µM (inactive) | GI50 (HOP-92): > 100 µM (inactive) | GI50 (OVCAR-5): > 100 µM (inactive) | GI50 (A549): > 100 µM (inactive) | GI50 (NCI-H522): > 100 µM (inactive) | GI50 (HOP-62): > 100 µM (inactive) | GI50 (NCI/ADR-RES): > 100 µM (inactive)

COC(=O)N1CC[C@@H]2CCC=C(c3cccc4c3OCO4)[C@@H]21
GI50 (HCT-116): > 100 µM (inactive) | GI50 (LOX IMVI): > 100 µM (inactive) | GI50 (SF-539): > 100 µM (inactive) | GI50 (MCF7): > 100 µM (inactive) | GI50 (HT-29): 79.6 µM (inactive) | GI50 (SK-OV-3): > 100 µM (inactive) | GI50 (786-0): > 100 µM (inactive) | GI50 (CCRF-CEM): 49.3 µM (inactive) | GI50 (SR): > 100 µM (inactive) | GI50 (RXF 393): > 100 µM (inactive) | GI50 (SK-MEL-28): > 100 µM (inactive) | GI50 (SN12C): > 100 µM (inactive) | GI50 (OVCAR-4): 45.4 µM (inactive) | GI50 (HOP-92): 22 µM (inactive) | GI50 (OVCAR-5): > 100 µM (inactive) | GI50 (A549): > 100 µM (inactive) | GI50 (NCI-H522): > 100 µM (inactive) | GI50 (HOP-62): > 100 µM (inactive) | GI50 (NCI/ADR-RES): 54.2 µM (inactive)

C=CCN(CCN(CC=C)S(=O)(=O)c1ccc(C)cc1)S(=O)(=O)c1ccc(C)cc1
GI50 (HCT-116): > 100 µM (inactive) | GI50 (LOX IMVI): 55.1 µM (inactive) | GI50 (MCF7): > 100 µM (inactive) | GI50 (HT-29): > 100 µM (inactive) | GI50 (CCRF-CEM): > 100 µM (inactive) | GI50 (SR): > 100 µM (inactive) | GI50 (RXF 393): > 100 µM (inactive) | GI50 (SK-MEL-28): > 100 µM (inactive) | GI50 (SN12C): > 100 µM (inactive) | GI50 (OVCAR-4): > 100 µM (inactive) | GI50 (HOP-92): 95.9 µM (inactive) | GI50 (A549): > 100 µM (inactive) | GI50 (NCI-H522): > 100 µM (inactive) | GI50 (NCI/ADR-RES): > 100 µM (inactive)

O=C(CCN1CCCCC1)Nc1ccc2sc3ccccc3c(=O)c2n1
GI50 (HCT-116): 6.46 µM (inactive) | GI50 (LOX IMVI): 10.3 µM (inactive) | GI50 (SF-539): 15.3 µM (inactive) | GI50 (MCF7): 15.9 µM (inactive) | GI50 (HT-29): 31.6 µM (inactive) | GI50 (SK-OV-3): 23.2 µM (inactive) | GI50 (786-0): 11.8 µM (inactive) | GI50 (CCRF-CEM): 7.91 µM (inactive) | GI50 (SR): 12.2 µM (inactive) | GI50 (RPMI-8226): 6.04 µM (inactive) | GI50 (SK-MEL-28): 16.7 µM (inactive) | GI50 (SN12C): 12.3 µM (inactive) | GI50 (OVCAR-4): 16 µM (inactive) | GI50 (HOP-92): 0.411 µM (active) | GI50 (OVCAR-5): 18.2 µM (inactive) | GI50 (A549): 15 µM (inactive) | GI50 (NCI-H522): 12 µM (inactive) | GI50 (HOP-62): 13.1 µM (inactive) | GI50 (NCI/ADR-RES): 7.67 µM (inactive)

CO[C@]12CC(=O)C3(C(C[C@H]4CC5CC=C6C[C@@H](OC(C)=O)CC[C@]6(OC(C)=O)C5C[C@@]43C)C1)C1C[C@H]3[C@@H]4CC=C5C[C@@H](OC(C)=O)CC[C@]5(OC(C)=O)[C@H]4CC[C@]3(C)C12 (some centres undefined)
GI50 (HCT-116): 6.55 µM (inactive) | GI50 (LOX IMVI): 18.9 µM (inactive) | GI50 (SF-539): 19.6 µM (inactive) | GI50 (MCF7): 17.3 µM (inactive) | GI50 (HT-29): 16.1 µM (inactive) | GI50 (SK-OV-3): 62.1 µM (inactive) | GI50 (786-0): 19.8 µM (inactive) | GI50 (CCRF-CEM): 74 µM (inactive) | GI50 (SR): 5.66 µM (inactive) | GI50 (RPMI-8226): 7.18 µM (inactive) | GI50 (SK-MEL-28): 30 µM (inactive) | GI50 (SN12C): 14.6 µM (inactive) | GI50 (OVCAR-4): 4.5 µM (inactive) | GI50 (HOP-92): 18.7 µM (inactive) | GI50 (OVCAR-5): 21.7 µM (inactive) | GI50 (A549): 21.9 µM (inactive) | GI50 (NCI-H522): 14 µM (inactive) | GI50 (HOP-62): 18.8 µM (inactive) | GI50 (NCI/ADR-RES): 14 µM (inactive)
